Data set [1] is described as follows: Decomposition reaction under chemical conditions (half life in buffer solution of pH 7.4, HPLC). Type of data set: physicochemical. Conditions: ph 7.4 buffer/dma, pH 7.4 buffer / N,N-dimethylacetamide 50 v/v%, 37° C. The protocol:
Decomposition reaction under chemical conditions:
A buffer solution of pH 7.4 was prepared by mixing suitably an aqueous 0.1 M citric acid solution and an aqueous 0.2 M disodium hydrogenphosphate solution. The buffer solution was diluted tenfold with water. This buffer solution was further dissolved in N,N-dimethylacetamide at a concentration of 50 v/v%, and its pH was adjusted to 7.4 by adding suitable amount of aqueous 0.1 M citric acid solution to prepare a buffer solution. The test compounds were dissolved respectively in the buffer solution at a concentration of 5 μM to prepare the test sample solutions. The test sample solutions were placed respectively in a glass vial, and the glass vials were kept at 37° C. in a thermostat. The change of the concentration of remaining test compounds with lapse of time was determined quantitatively intermittently by high performance liquid chromatography (HPLC) to measure the half life (t1/2 : hours).

Data set [2] relates to M5076/ADR cells (adriamycin-resistant strain). Kind of data set: Evaluation with mouse bearing M5076/ADR cells (adriamycin-resistant strain) transplanted subcutaneously. Type of data set: in vivo, mouse (female, BDFI strain). Particulars: 1.0 mg/kg, single injection into tail vein nine days after transplantation; tumor weighed 13 days after injection. The protocol: Evaluation with mouse bearing M5076/ADR cells (adriamycin-resistant strain) transplanted subcutaneously:
M5076/ADR cells (adriamycin-resistant strain) were transplanted subcutaneously at the axillary region of female mice (BDFI strain, 8 week age) in an amount of 3.0×10^6 cells for an individual mouse. Nine days after the transplantation, the test compound solution was injected once into the tail vein. After 13 days from the injection, the tumor was excised and weighed. The antitumor activity was evaluated by the ratio (T/C) of the average tumor weight (T) of the administrated group to the average tumor weight (C) of control group to which solvent was administrated.

Setting [3] is: * Average of the half lives of the diastereomers, read-out: Half life (t1/2), average of the half lives of the diastereomers (converted).
The mark [4] stands for this setting: read-out: Half life (t1/2) (converted).

Where a name gives a salt, the structure may show the parent alone. Read-outs that look alike come from different tables or passages of the source.

For `COC(=O)c1c(C(F)(F)F)[nH]c2c(OC(=O)N3CCCCC3CO)cc3c(c12)[C@H](CCl)CN3C(=O)c1cc2cc(NC(=O)c3cc4cccc(OC)c4o3)ccc2[nH]1` (mixture of isomers) [Example 4, methyl (1S)-chloromethyl-5-{[(2RS)-hydroxymethylpiperidin-1-ylcarbonyl]oxy}-3-[5-(7-methoxybenzofuran-2-ylcarbonyl)amino-1H-indol-2-ylcarbonyl]-7-trifluoromethyl-1,2,3,6-tetrahydropyrrolo[3,2-e]indole-8-carboxylate], in data set [1] (setting [3]), the half-life at 5 µM is over 8 h. Also, in data set [2], the “T/C (ratio of average tumor weight of administrated group to control group)” value is recorded as 0.01.

Regarding `COC(=O)c1c(C(F)(F)F)[nH]c2c(OC(=O)N3CCOCC3CO)cc3c(c12)[C@H](CCl)CN3C(=O)c1cc2cc(NC(=O)c3cc4cccc(OC)c4o3)ccc2[nH]1` (mixture of isomers) [Example 7, methyl (1S)-chloromethyl-5-{[(3RS)-hydroxymethylmorpholin-4-ylcarbonyl]oxy}-3-[5-(7-methoxybenzofuran-2-ylcarbonyl)amino-1H-indol-2-ylcarbonyl]-7-trifluoromethyl-1,2,3,6-tetrahydropyrrolo[3,2-e]indole-8-carboxylate], in data set [1] (setting [3]), the half-life at 5 µM is 1.7 h.

Regarding `COC(=O)c1c(C(F)(F)F)[nH]c2c(OC(=O)N3CCC[C@H]3CO)cc3c(c12)[C@H](CCl)CN3C(=O)c1cc2cc(NC(=O)c3cc4cccc(OC)c4o3)ccc2[nH]1` [Example 1, methyl (1S)-chloromethyl-5-{[(2S)-hydroxymethylpyrrolidin-1-ylcarbonyl]oxy}-3-[5-(7-methoxybenzofuran-2-ylcarbonyl)amino-1H-indol-2-ylcarbonyl]-7-trifluoromethyl-1,2,3,6-tetrahydropyrrolo[3,2-e]indole-8-carboxylate], in data set [1] (setting [4]), the half-life at 5 µM was over 8 h.

Regarding `COC(=O)c1c(C(F)(F)F)[nH]c2c(OC(=O)N3C[C@H](O)C[C@H]3CO)cc3c(c12)[C@H](CCl)CN3C(=O)c1cc2cc(NC(=O)c3cc4cccc(OC)c4o3)ccc2[nH]1` [Example 2, methyl (1S) -chloromethyl-5-{[(4R)-hydroxy-(2S)-hydroxymethylpyrrolidin-1-ylcarbonyl]oxy}-3-[5-(7-methoxybenzofuran-2-ylcarbonyl)amino-1H-indol-2-ylcarbonyl]-7-trifluoromethyl-1,2,3,6-tetrahydropyrrolo[3,2-e]indole-8-carboxylate], the half-life at 5 µM in data set [1] (setting [4]) is over 8 h.

For the compound `COC(=O)c1c(C(F)(F)F)[nH]c2c(OC(=O)N3CCC[C@H]3CN3CCCC3)cc3c(c12)[C@H](CCl)CN3C(=O)c1cc2cc(NC(=O)c3cc4cccc(OC)c4o3)ccc2[nH]1` [Example 3, methyl (1S)-chloromethyl-5-{[(2S)-(pyrrolidin-l-ylmethyl)pyrrolidin-1-ylcarbonyl]oxy}-3-[5-(7-methoxybenzofuran-2-ylcarbonyl)amino-1H-indol-2-ylcarbonyl]-7-trifluoromethyl-1,2,3,6-tetrahydropyrrolo[3,2-e]indole-8-carboxylate], the half-life at 5 µM in data set [1] (setting [4]) was 1 h.

On to `COC(=O)c1c(C(F)(F)F)[nH]c2c(OC(=O)N3CCN(C)CC3CO)cc3c(c12)[C@H](CCl)CN3C(=O)c1cc2cc(NC(=O)c3cc4cccc(OC)c4o3)ccc2[nH]1` (stereo partly drawn) [Example 5, hydrochloride of methyl (1S)-chloromethyl-5-{[(2RS)-hydroxymethyl-4-methylpiperazin-1-ylcarbonyl]oxy}-3-[5-(7-methoxybenzofuran-2-ylcarbonyl)amino-1H-indol-2-ylcarbonyl]-7-trifluoromethyl-1,2,3,6-tetrahydropyrrolo[3,2-e]indole-8-carboxylate], for which the half-life at 5 µM in data set [1] (setting [3]) is 1.7 h. Besides, the “T/C (ratio of average tumor weight of administrated group to control group)” value in data set [2] is recorded as 0.01.

For `COC(=O)c1c(C(F)(F)F)[nH]c2c(OC(=O)N3CCN(C)CC3CCO)cc3c(c12)[C@H](CCl)CN3C(=O)c1cc2cc(NC(=O)c3cc4cccc(OC)c4o3)ccc2[nH]1` (stereo partly drawn) [Example 6, hydrochloride of methyl (1S)-chloromethyl-5-{[(2RS)-hydroxyethyl-4-methylpiperazin-1-ylcarbonyl]oxy}-3-[5-(7-methoxybenzofuran-2-ylcarbonyl)amino-1H-indol-2-ylcarbonyl]-7-trifluoromethyl-1,2,3,6-tetrahydropyrrolo[3,2-e]indole-8-carboxylate], the half-life at 5 µM in data set [1] (setting [3]) was 5.8 h. Moreover, the “T/C (ratio of average tumor weight of administrated group to control group)” value in data set [2] was 0.02.

The values above are taken from US6080859A, “Pyrroloindole derivatives and intermediates in producing the same” (priority 1997, dated 2000).
